2 compounds from patent US20160213619A1, “INTRAORALLY DISINTEGRABLE TABLET COMPRISING DISINTEGRABLE GRANULAR COMPOSITION” (DAICEL CORPORATION, priority 2013, published 2016) can be followed below.

A short description of this data set: distribution coefficient (log P), measured between n-octanol and water. It is filed as physicochemical. The settings on record: experimental value, read-out: logP Observed. The procedure: On the other hand, the measured value of the distribution coefficient is calculated by the following equation using a concentration of a medicinal ingredient dissolved in each of two phases of water and n-octanol, which is obtained by a conventional quantitative method such as absorption spectrophotometry, gas chromatography or liquid chromatography:
Log P=Log [(concentration of the medicinal ingredient in n-octanol phase)/(concentration of the medicinal ingredient in water phase)

Take `CCOc1ccccc1C(N)=O` [ethenzamide]: the lipophilicity (logP) (commonly a log measure of how a compound divides between an organic and an aqueous phase) stood at 1.39.

As for `O=C1O[C@H]([C@@H](O)CO)C(O)=C1O` [ascorbic acid], the logP is -2.15.
